Assay results reported in patent US20250177533A1, “PHOTODYNAMIC THERAPY AND DIAGNOSIS” (RMW CHO Group Limited, priority 2021, published 2025).
Where two headings read alike, the source gives them in different places.

Columns and labels:
[1] = test system: Human ovarian cancer cell line SKOV3; settings: 24 h
Experimental: (§1) Serial dilutions were prepared in cell culture media (Dulbecco's Modified Eagle Medium/Nutrient Mixture F-12 (DMEM/F-12)) supplemented with 10% v/v Fetal Bovine Serum, 100 U/mL penicillin, 100 μg/mL streptomycin and the same excipient solution at a constant 1:55 dilution.
(§2) Human ovarian cancer cell line SKOV3 (ATCC #HTB-77) was maintained in Dulbecco's Modified Eagle Medium/Nutrient Mixture F-12 (DMEM/F-12), supplemented with 10% v/v Fetal Bovine Serum, 100 U/mL penicillin and 100 μg/mL streptomycin. Monolayer cultures were grown in a humidified incubator at 37° C. with 5% CO2. Once cells had reached ˜80% confluence, spent media was replaced with media containing photosensitizer at the required concentration and cells were incubated for the desired period of time to allow photosensitizer uptake.
(§3) Spectral absorbance and viability measurements were normalized in the range 0-100%, with a minimum of 0 and a maximum value determined from the dataset. Dose response was determined using a sigmoidal four-point non-linear regression with variable slope, and IC10 or IC90 calculated for each compound. All data are shown as mean±SD (where appropriate).
(§4) On reaching ˜60% confluence, media was aspirated and replaced with fresh media containing the relevant phyllochlorin analogue from 0-100 μM in DMSO.
(§5) Untreated cells were used as a control. […] All measurements were made in quadruplicate.
(§6) The phototoxicity and inherent cytotoxicity (i.e. “dark toxicity”) of phyllochlorin analogues were assessed as previously using SKOV3 ovarian cancer cells. For comparative purposes, phyllochlorin analogues were compared against chlorin e4 disodium and Talaporfin sodium, a clinically approved photosensitizer used in the photodynamic treatment of lung cancers.

[2] = test system: SKOV3 ovarian cancer cells; settings: human, 5 μM
Experimental: SKOV3 cells were seeded in 96-well black wall plates (Greiner #655090) at a cell density of 5000 cells in 100 μl culture medium per well. […] Cells were incubated for up to 18 hours. At time periods of 10 min, 20 min, 30 min, 60 min, 2 hrs, 4 hrs and 18 hrs, media was removed and the cells lysed in 100 μl of lysis buffer (PBS+1% SDS+1% PVP+Benzonase Nuclease 500 units/mL). Each sample was snap-frozen on dry ice until use.
Eight point standard curves using compound 1 or chlorin e4 disodium were constructed in the range 0-10 μM using serial dilutions in lysis buffer. Cell lysates (100 μl) were thawed, centrifuged at room temperature (21,000 g, 10 mins) and the supernatants transferred to fresh tubes. 100 μl of each supernatant was added neat to 96-well microplates and absorbance measured at 405 nm using a Cytation 3 multimode plate reader. All wells were measured against blank wells containing buffer alone, and a background value measured using untreated cells was subtracted from all samples. The concentration of each chlorin species was determined against the appropriate standard curve in each case.
Chlorin e4 disodium (which enters cells via a passive diffusion process) was included as a comparator, and untreated cells were used as a control. Cells were harvested at time periods from 10 mins to 18 hours post addition of photosensitizers, cells were lysed and the supernatants measured for uptake of photosensitizers against an appropriate standard curve.

[3] = Determination of solubility of phyllochlorin analogues (absorbance maxima as surrogate measure); format: physicochemical
Experimental: Absorbance maxima were used as a surrogate measure of solubility. The relevant phyllochlorin analogue was diluted to 50 μM in PBS (phosphate buffered saline) solutions containing decreasing amounts of DMSO from 100% to 0%.
Where required, polyvinylpyrrolidone (K30) was added to a final concentration of 1% w/v. Absorbance was measured using a Cytation 3 Multimode Plate Reader (Biotek) in spectral scanning mode, with spectra captured between 500-800 nm in 2 nm increments. Equivalent blank solutions were also measured and subtracted accordingly. Each spectrum was normalized to have a minimum signal of 0, and a maximum signal in pure DMSO solution (the most soluble state) of 100%.
The solubility of compound 1 was assessed in solutions containing DMSO as an organic solvent. Compound 1 (50 μM final concentration) was resuspended in 100% DMSO to fully dissolve compound 1, in the presence or absence of 1% PVP (w/v). With concentrations of compound 1 maintained at 50 μM the % DMSO was decreased in a stepwise manner from 100% to 0%. All solutions were mixed by vortexing, then centrifuged for 2 mins to pellet any insoluble material. A 150 μl aliquot was transferred to individual wells of a 96-well clear microplate, and absorbance spectra collected between 500-800 nm in 2 nm increments. Equivalent solutions containing decreasing % DMSO were used to control for background.

E coli DH5α cells = assay: Photosensitizer uptake into bacterial cells (absorbance spectra of lysates); format: cell-based; settings: 50 μM, incubated overnight
Experimental: E coli DH5α cells were inoculated into LB media and incubated overnight (shaking at 37° C.) in the presence of 50 μM compound 1 or chlorin e4 disodium. Untreated cells acted as the control. The following day cells were harvested by centrifugation (5000 g, 10 mins, room temperature) and lysed by addition of PBS+1% SDS (w/v)+1% PVP-17 (w/v). Insoluble material was pelleted by centrifugation at 21,000 g (10 mins, bench top centrifuge) and the supernatant transferred to a fresh tube. A 100 μl aliquot was added to clear 96-well microtitre plates and absorbance spectra measured between 600-700 nm (Cytation 3 multimode plate reader). The optical density (OD) was plotted against wavelength in each case to determine uptake of photosensitizer into cells.

[4] = test system: Human ovarian cancer cell line SKOV3; assay: Phototoxicity in SKOV3 cells (660 nm laser or LED, AlamarBlue viability); format: cell-based; settings: for IC90: SKOV3, 24 h uptake, viability 24 h later
Text: All data are shown as mean±SD (where appropriate).
Media was then replaced with fresh media containing AlamarBlue, and % viable cells remaining assessed as above. […] All measurements were made in quadruplicate.

[5] = test system: Human ovarian cancer cell line SKOV3; assay: Inherent cytotoxicity (dark toxicity) in SKOV3 cells (AlamarBlue viability); settings: SKOV3, 24 h incubation, no light activation
Experimental: as §1, §2, §3, §4, §5, §6

[6] = Homo sapiens, SK-OV-3, light or radiation study, 660 nm laser 50 mW/cm^2 for 5 mins (15 J/cm^2), read-out: Phototoxicity μM (IC90)
[7] = Homo sapiens, SK-OV-3, light or radiation study, 660 nm LED panel 50 mW/cm^2 for 5 mins (15 J/cm^2), read-out: Phototoxicity μM (IC90), measured by LED

Molecule | Dark toxicity μM (IC10) [1] | IC90 [4, 6] | IC90 [4, 7] | Dark toxicity μM (IC10) [5] | other results
CCC1=C(C)c2cc3[nH]c(cc4nc(c(C)c5cc(C)c(cc1n2)[nH]5)[C@@H](CCC(=O)OC)[C@@H]4C)c(C)c3C(C)OCCCS[C@@H]1O[C@H](CO)[C@@H](O)[C@H](O)[C@H]1O (stereo partly drawn) [Compound 1, methyl 3-((7S,8S)-18-ethyl-2,5,8,12,17-pentamethyl-13-(1-(3-(((2S,3R,4S,5S,6R)-3,4,5-trihydroxy-6-(hydroxymethyl)tetrahydro-2H-pyran-2-yl)thio)propoxy)ethyl)-7H,8H-porphyrin-7-yl) propanoate] | 13.500 µM | 0.06 µM |  |  | observed in cells (time of incubation) [2]: ≤ 10 min; rate of uptake [2]: substantially faster than that of chlorin e4 disodium; time the rate of uptake was maintained after addition of photosensitizer [2]: 2 to 4 h; apparent solubility ([3]; 50 μM, DMSO concentrations below 40%): ~45%; solubility ([3]; 50 μM, concentrations above 70% DMSO): completely soluble; solubility in aqueous solution ([3]; 50 μM, no DMSO, addition of PVP 1%): ~75 % of maximal; absorbance maxima ([3]; in the presence of 1% PVP (w/v)): 650±2 nm; detection in bacterial lysates (E coli DH5α cells): clearly detectible
CCC1=C(C)c2cc3[nH]c(cc4nc(c(C)c5cc(C)c(cc1n2)[nH]5)[C@@H](CCC(=O)O)[C@@H]4C)c(C)c3C(C)O (stereo partly drawn) [Compound 27, phyllochlorin 13-(ethyl-1-alcohol)] | 10.520 µM | 0.397 µM |  |  | 
CCC1=C(C)c2cc3[nH]c(cc4nc(c(C)c5cc(C)c(cc1n2)[nH]5)[C@@H](CCC(=O)OC)[C@@H]4C)c(C)c3C(C)OCCC[n+]1ccc(C)cc1 (stereo partly drawn) [Compound 28] | 4.877 µM | 0.003 µM |  |  | 
CCC1=C(C)c2cc3[nH]c(cc4nc(c(C)c5cc(C)c(cc1n2)[nH]5)[C@@H](CCC(=O)OC)[C@@H]4C)c(C)c3COC(=O)NCCOC [Compound 29, phyllochlorin methyl ester 13-(2-methoxyethyl)carbamate] | 30.000 µM |  | 0.0867 µM |  | 
CCC1=C(C)c2cc3[nH]c(cc4nc(c(C)c5cc(C)c(cc1n2)[nH]5)[C@@H](CCC(=O)OC)[C@@H]4C)c(C)c3C=O [Compound 30, phyllochlorin 13-formyl methyl ester] | 45.760 µM | 2.27 µM |  |  | 
CCC1=C(C)c2cc3[nH]c(cc4nc(c(C)c5cc(C)c(cc1n2)[nH]5)[C@@H](CCCO)[C@@H]4C)c(C)c3CO [Compound 32, phyllochlorin 13-hydroxymethyl-3-hydroxypropyl] | 30.850 µM | 0.0724 µM |  |  | 
CCC1=C(C)c2cc3[nH]c(cc4nc(c(C)c5cc(C)c(cc1n2)[nH]5)[C@@H](CCCO[C@@H]1O[C@H](CO)[C@@H](O)[C@H](O)[C@H]1O)[C@@H]4C)c(C)c3CO[C@@H]1O[C@H](CO)[C@@H](O)[C@H](O)[C@H]1O [Compound 33, phyllochlorin 13-hydroxymethyl-3-hydroxypropyl-bis-β-D-glucoside ether] | 14.080 µM | 0.765 µM |  |  | 
CCC1=C(C)c2cc3[nH]c(cc4nc(c(C)c5cc(C)c(cc1n2)[nH]5)[C@@H](CCCO)[C@@H]4C)c(C)c3CO[C@@H]1O[C@H](CO)[C@@H](O)[C@H](O)[C@H]1O [Compound 35, phyllochlorin 3-hydroxypropyl-13-hydroxymethyl-β-D-glucoside ether] | 1.651 µM | 0.0467 µM |  |  | 
CCC1=C(C)c2cc3[nH]c(cc4nc(c(C)c5cc(C)c(cc1n2)[nH]5)[C@@H](CCC(=O)OC)[C@@H]4C)c(C)c3COC(=O)NCCCCCC[P+](c1ccccc1)(c1ccccc1)c1ccccc1 [Compound 39, phyllochlorin methyl ester 13-(6-(triphenylphosphonium bromide)hexyl)carbamate] | 6.403 µM |  | 0.0018 µM |  | 
CCC1=C(C)c2cc3[nH]c(cc4nc(c(C)c5cc(C)c(cc1n2)[nH]5)[C@@H](CCC(=O)OC)[C@@H]4C)c(C)c3COC(=O)NCCCOCCC[P+](c1ccccc1)(c1ccccc1)c1ccccc1 [Compound 40, phyllochlorin methyl ester 13-(N-(3-(3-triphenylphosphoniumpropoxy)propyl)chloride)carbamate] |  |  | 0.0008 µM | 0.6145 µM | 
CCC1=C(C)c2cc3[nH]c(cc4nc(c(C)c5cc(C)c(cc1n2)[nH]5)[C@@H](CCC(=O)N(C)CCOCCOCCOC)[C@@H]4C)c(C)c3CO [Compound 42, phyllochlorin 13-hydroxymethyl N-methyl-N-3,6,9-trioxadecyl propylamide] | 4.252 µM |  | 0.245 µM |  | 
CCC1=C(C)c2cc3[nH]c(cc4nc(c(C)c5cc(C)c(cc1n2)[nH]5)[C@@H](CCC(=O)N(C)CCOCCOCCOC)[C@@H]4C)c(C)c3COC(=O)NCCCCCC[P+](c1ccccc1)(c1ccccc1)c1ccccc1 [Compound 43, phyllochlorin 13-(6-(triphenylphosphonium bromide)hexyl)carbamate N-methyl-N-3,6,9-trioxadecyl propylamide] | 0.5889 µM |  | 0.0042 µM |  | 
CCC1=C(C)c2cc3[nH]c(cc4nc(c(C)c5cc(C)c(cc1n2)[nH]5)[C@@H](CCC(=O)OC)[C@@H]4C)c(C)c3COC(=O)NCCC[P+](c1ccccc1)(c1ccccc1)c1ccccc1 [Compound 45, phyllochlorin methyl ester 13-(N-(3-triphenylphosphoniumpropyl)bromide)carbamate] |  |  | 0.0012 µM | 3.977 µM | 
CCC1=C(C)c2cc3[nH]c(cc4nc(c(C)c5cc(C)c(cc1n2)[nH]5)[C@@H](CCC(=O)OC)[C@@H]4C)c(C)c3COC(=O)NCC[P+](c1ccccc1)(c1ccccc1)c1ccccc1 [Compound 46, phyllochlorin methyl ester 13-(N-(2-triphenylphosphoniumethyl)bromide)carbamate] | 1.277 µM |  | 0.0014 µM |  | 
CCC1=C(C)c2cc3[nH]c(cc4nc(c(C)c5cc(C)c(cc1n2)[nH]5)[C@@H](CCC(=O)N(C)CCOC)[C@@H]4C)c(C)c3COC(=O)NCCC[P+](c1ccccc1)(c1ccccc1)c1ccccc1 [Compound 50, phyllochlorin N-methyl-N-(2-methoxy)ethyl propylamide 13-(N-(3-triphenylphosphoniumpropyl)bromide)carbamate] |  |  | 0.0016 µM | 0.470 µM | 
CCC1=C(C)c2cc3[nH]c(cc4nc(c(C)c5cc(C)c(cc1n2)[nH]5)[C@@H](CCC(=O)NCCOC)[C@@H]4C)c(C)c3COC(=O)NCCC[P+](c1ccccc1)(c1ccccc1)c1ccccc1 [Compound 52, phyllochlorin N-(2-methoxy)ethyl propylamide 13-(N-(3-triphenylphosphoniumpropyl)bromide)carbamate] |  |  | 0.0052 µM | 1.060 µM | 
CCOC(=O)CC[C@@H]1c2nc(cc3[nH]c(cc4nc(cc5[nH]c(cc5C)c2C)C(CC)=C4C)c(COC(=O)NCCC[P+](c2ccccc2)(c2ccccc2)c2ccccc2)c3C)[C@H]1C [Compound 53, phyllochlorin ethyl ester 13-(N-(3-triphenylphosphoniumpropyl)bromide)carbamate] |  |  | 0.00077 µM | 2.240 µM | greater phototoxicity compared to Talaporfin sodium ([4]; SKOV3, IC90): 5 orders of magnitude
C=Cc1c(C)c2cc3nc(c(CC(=O)N[C@@H](CC(=O)O)C(=O)O)c4[nH]c(cc5nc(cc1[nH]2)C(C)=C5CC)c(C)c4C(=O)O)[C@@H](CCC(=O)O)[C@@H]3C [Talaporfin sodium, reference compound] |  |  |  | 11.10 µM | 
phyllochlorin 13-(N-(3-(3-triphenylphosphoniumpropoxy)propyl)chloride)carbamate N-methyl-N-3,6,9-trioxadecyl propylamide [Compound 44] |  |  |  | 0.5603 µM | IC90 ([4]; 660 nm LED panel 50 mW/cm^2 for 5 mins (15 J/cm^2), read-out: Phototoxicity μM (IC90), measured by LED): 0.0057 µM
phyllochlorin methyl ester 3-triphenylphosphonium bromide propyl ether [Compound 21] |  |  |  | 3.801 µM | IC90 ([4]; 660 nm laser 50 mW/cm^2 for 5 mins (15 J/cm^2), read-out: Phototoxicity μM (IC90)): 0.012 µM
